Like-named read-outs stand apart in the source and are kept apart here.
Experiment: Phase I study CXR1002-001: plasma pharmacokinetics (LC-MS/MS)
Format: in vivo, human
Conditions: human, plasma, oral, person, plasma; for concentration at 24 h: 24 hr (Day 2); for concentration at 168 h: 168 hr (Day 8); for concentration at 336 h: 336 hr (Day 15); for concentration at 360 h: 360 hr (Day 16); for concentration at 504 h: 504 hr (Day 22); for concentration at 672 h: 672 hr (Day 29); for concentration at 696 h: 696 hr (Day 30); for concentration at 840 h: 840 hr (Day 36)
From the text: PK samples, PD (fasting) samples, blood glucose, and blood triglyceride samples, were taken over a 6-week period.
Dose limiting toxicity (DLT) will be based on the toxicity assessments over the first 3-week period of the repeat dosing schedule. PK samples (single blood sample) were taken on the following basis: • Every 6 weeks during the repeat dosing phase • If dosing is interrupted or stopped, samples will be taken at intervals according to patient convenience • PK sampling for safety evaluation may take place at any time, as clinically indicated
Plasma samples were collected after the single 50 mg dose at the following timepoints: Pre-dose, and then 0.25, 0.5, 0.75, 1, 1.5, 2, 3, 4, 6, 24, 48, and 72 hours after administration and then once weekly at weeks 2, 3, 4, 5, and 6 (days 8, 15, 22, 29, and 36). For patients treated with the weekly repeat dose, plasma samples were collected at the following timepoints: Pre-dose and then 2, 3, 4 and 24 hours after administration for a total of 6 weeks. Thereafter a single sample was collected every 6 weeks for monitoring of exposure during long term treatment. Plasma samples were processed at site and stored at −80° C. prior to batch shipment to the analytical laboratory.

[1] = 1000 mg, Patient 040, 1000 mg, read-out: Concentration
[2] = 1200 mg, Patient 033, 1200 mg, read-out: Concentration

O=C(O)C(F)(F)C(F)(F)C(F)(F)C(F)(F)C(F)(F)C(F)(F)C(F)(F)F [CXR1002] gave a concentration at 4 h [1] of 190 µM, a concentration at 24 h [1] of 148 µM and a concentration at 168 h [1] of 120 µM. For the same molecule, the concentration at 170 h [1] was 368 µM, the concentration at 171 h [1] was 343 µM and the concentration at 172 h (1000 mg, Patient 040, 1000 mg, 172 hr, read-out: Concentration) was 326 µM. It also gave a concentration at 192 h (1000 mg, Patient 040, 1000 mg, 192 hr (Day 9), read-out: Concentration) of 272 µM, a concentration at 336 h [1] of 305 µM and a concentration at 338 h [1] of 487 µM. For the same molecule, the concentration at 339 h [1] was 427 µM, the concentration at 340 h [1] was 476 µM and the concentration at 360 h [1] was 485 µM. For the same molecule, the concentration at 504 h [1] was 353 µM, the concentration at 506 h [1] was 502 µM and the concentration at 507 h (1000 mg, Patient 040, 1000 mg, 507 hr, read-out: Concentration) was 554 µM. It also gave a concentration at 508 h (1000 mg, Patient 040, 1000 mg, 508 hr, read-out: Concentration) of 515 µM, a concentration at 528 h (1000 mg, Patient 040, 1000 mg, 528 hr (Day 23), read-out: Concentration) of 525 µM and a concentration at 672 h [1] of 490 µM. The concentration at 674 h [1] was 558 µM, the concentration at 675 h [1] was 533 µM and the concentration at 676 h [1] was 607 µM. For the same molecule, the concentration at 696 h [1] was 697 µM, the concentration at 840 h [1] was 574 µM and the concentration at 842 h [1] was 626 µM. It also gave a concentration at 843 h (1000 mg, Patient 040, 1000 mg, 843 hr, read-out: Concentration) of 748 µM, a concentration at 864 h (1000 mg, Patient 040, 1000 mg, 864 hr (Day 37), read-out: Concentration) of 826 µM and a concentration at 0 h (1200 mg, Patient 033, 1200 mg, 0 hr (pre-dose)) of 0 nM. For the same molecule, the concentration at 2 h (1200 mg, Patient 033, 1200 mg, 2 hr, read-out: Concentration) was 441 µM, the concentration at 3 h (1200 mg, Patient 033, 1200 mg, 3 hr, read-out: Concentration) was 396 µM and the concentration at 4 h [2] was 374 µM. For the same molecule, the concentration at 24 h [2] was 371 µM, the concentration at 168 h [2] was 317 µM and the concentration at 170 h [2] was 735 µM. The concentration at 171 h [2] was 657 µM, the concentration at 172 hr (1200 mg, Patient 033, 1200 mg, 172 hr, read-out: Concentration) was 637 µM and the concentration at 192 hr (1200 mg, Patient 033, 1200 mg, 192 hr (Day 9), read-out: Concentration) was 591 µM. For the same molecule, the concentration at 336 h [2] was 637 µM, the concentration at 338 h [2] was 926 µM and the concentration at 339 h [2] was 841 µM. It also gave a concentration at 340 h [2] of 817 µM, a concentration at 360 h [2] of 915 µM and a concentration at 504 h [2] of 713 µM. The concentration at 506 h [2] was 1150 µM, the concentration at 507 hr (1200 mg, Patient 033, 1200 mg, 507 hr, read-out: Concentration) was 1060 µM and the concentration at 508 hr (1200 mg, Patient 033, 1200 mg, 508 hr, read-out: Concentration) was 1010 µM. The concentration at 672 h [2] was 1020 µM, the concentration at 674 h [2] was 1230 µM and the concentration at 675 h [2] was 1110 µM. It also gave a concentration at 676 h [2] of 1100 µM, a concentration at 696 h [2] of 1110 µM and a concentration at 840 h [2] of 1040 µM. For the same molecule, the concentration at 842 h [2] was 1110 µM, the concentration at 843 hr (1200 mg, Patient 033, 1200 mg, 843 hr, read-out: Concentration) was 1230 µM and the concentration at 844 hr (1200 mg, Patient 033, 1200 mg, 844 hr, read-out: Concentration) was 1200 µM. It also gave a concentration at 864 hr (1200 mg, Patient 033, 1200 mg, 864 hr (Day 37), read-out: Concentration) of 1320 µM, a concentration at 2 hr (1200 mg, Patient 034, 1200 mg, 2 hr, read-out: Concentration) of 440 µM and a concentration at 3 hr (1200 mg, Patient 034, 1200 mg, 3 hr, read-out: Concentration) of 401 µM.
